The source of these data is patent US4798787A, “Peptide antibodies and their use in detecting oncogene products” (Cetus Corporation, priority 1984, dated 1989).

In the assay the target is T1, p21 protein (v-Ki-ras p21, serine at position 12) (Kirsten murine sarcoma virus, UniProt P01117).
T1 construct: made in house; host or cells: E. coli (plasmid pINIII-ras, gift of M. Inouye, printed 'Inouge')
Put plainly: Inhibition by nucleotides of anti-p21ser antibody binding to p21 protein under mild denaturation conditions. Conditions: 10 mM nucleotide. From the text:
An alternative explanation is that the antibody binds at some distance from the GTP binding site and yet alters GTP binding by disturbing the tertiary structure of the protein. […] The invention herein is not limited to either explanation.

T1 sequence (P01117 whole entry): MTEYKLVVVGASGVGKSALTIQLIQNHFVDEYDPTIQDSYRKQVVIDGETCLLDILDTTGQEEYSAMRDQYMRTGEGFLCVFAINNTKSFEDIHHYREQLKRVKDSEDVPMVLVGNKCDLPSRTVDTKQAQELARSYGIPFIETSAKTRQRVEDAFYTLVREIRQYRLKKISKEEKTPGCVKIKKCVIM

Consider `Nc1ncnc2c1ncn2[C@@H]1O[C@H](COP(=O)(O)OP(=O)(O)OP(=O)(O)O)[C@@H](O)[C@H]1O` [ATP], for which the “inhibition of the binding of anti-p21ser antibodies to p21 protein” value is recorded as “not”.

As to `Nc1nc2c(ncn2[C@@H]2O[C@H](COP(=O)(O)OP(=O)(O)OP(=O)(O)O)[C@@H](O)[C@H]2O)c(=O)[nH]1` [GTP, guanosine triphosphate], the “inhibition of the binding of anti-p21ser antibodies to p21 protein” value is reported as “substantially inhibit”.
